The results in this text go back to patent US6593342B1, “Pharmaceutical compositions comprising 2-quinolones” (Laboratoire L. Lafon, priority 1998, dated 2003).

Usually MTD stands for the largest dose that counted as tolerated. A low value points to poorer tolerability.

One data set has as its system LoVo. Put plainly: MTT test, LoVo. The conditions noted are these: Homo sapiens, 10^−5 M, 72 hours, control = 100%, mean ± SEM, read-out: average optical density (MTT), percentage relative to control. It counts as cell-based. The gist of the method: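 Human colorectal LoVo and HCT-15 cells in MEM/25 mM HEPES with 5% FCS were seeded, grown 24 h, then exposed 72 h at 37 °C to compounds at 10^−5 to 10^−10 M. Viability was read by MTT reduction (3 h), formazan dissolved in DMSO and read at 570/630 nm, expressed as % of solvent control.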
In general terms: Tetrazolium assays rely on reduction of a dye to a coloured formazan, in cell work by metabolically active cells.

The next data set has as its system U-87MG. As to the kind of experiment: MTT test, U-87MG. It counts as cell-based. The conditions noted are these: Homo sapiens, 10^−5 M, 72 hours, control = 100%, mean ± SEM, read-out: average optical density (MTT), percentage relative to control. The gist of the method:
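Human glioblastoma lines in MEM/25 mM HEPES with 5% FCS, seeded 24 h, then exposed 72 h at 37 °C to compounds at 10^−5 to 10^−10 M or solvent. MTT (1 mg/ml) 3 h, formazan dissolved in DMSO, absorbance 570/630 nm; optical density expressed as % of solvent control.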

Data set [1] can be described thus: Determination of the maximum tolerated dose (MTD). The conditions noted are these: mouse, in vivo, ip; B6D2F1/Jico mice; single intraperitoneal administration, 2.5 to 160 mg/kg; survival over 14 days.
The test system of the next data set is T-47D. Put plainly: MTT test, T-47D. It counts as cell-based. The conditions noted are these: Homo sapiens, T47D, 10^−5 M, 72 hours, control = 100%, mean ± SEM, read-out: average optical density (MTT), percentage relative to control. The gist of the method:
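T-47D and MCF7 cells in MEM/25 mM HEPES with 5% FCS, treated 72 h at 37 °C with compound at 10^−5 to 10^−10 M, 24 h after seeding. MTT (1 mg/ml) added for 3 h, formazan dissolved in DMSO, read at 570/630 nm. Optical density expressed as % of solvent control.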

Consider `COc1ccc(-c2cc3c(OC)cc(OC)cc3[nH]c2=O)cc1` [CRL8246, 5,7-Dimethoxy-3-(4-methoxyphenyl)-1,2-dihydro-2-quinolinone], for which the viability at 10 µM was determined as 109 ± 7% in the data set with LoVo, 92.1 ± 1.5% with U-87MG and 96 ± 2.6% in the data set with T-47D. The molecule also had an MTD at 14 day in data set [1] greater than 160 mg/kg.

On to `COc1ccc(-c2cc3c(OC)cc(OC)cc3n(CCC#N)c2=O)cc1` [CRL8247, 3-[5,7-Dimethoxy-3-(4-methoxyphenyl)-2-oxo-1,2-dihydro-1-quinolinyl]propanenitrile], for which the viability at 10 µM in the data set on LoVo was 66.4 ± 2.5%; in the data set on U-87MG, 59 ± 2.3%; in the data set with T-47D, 58.3 ± 1.4%. This molecule had an MTD at 14 day in data set [1] greater than 160 mg/kg.

As for `COc1ccc(-c2cc3c(OC)cc(OC)cc3n(CCc3nnn[nH]3)c2=O)cc1` [CRL8256, 1-[2-(1H-1,2,3,4-Tetrazol-5-yl)ethyl]-5,7-dimethoxy-3-(4-methoxyphenyl)-1,2-dihydro-2-quinolinone], the viability at 10 µM worked out at 93 ± 2.3% with LoVo, 84.7 ± 1.7% in the data set on U-87MG and 77.5 ± 3.6% in the data set on T-47D. The MTD at 14 day in data set [1] is greater than 160 mg/kg.

In the case of `CCN(CC)C(=O)CCn1c(=O)c(-c2ccc(OC)cc2)cc2c(OC)cc(OC)cc21` [CRL8283, N,N-Diethyl-3-[5,7-dimethoxy-3-(4-methoxy-phenyl)-2-oxo-1,2-dihydro-1-quinolinyl]propanamide], the figures for the viability at 10 µM in the data set on LoVo, in the data set on U-87MG and in the data set on T-47D were 97.3 ± 3.6%, 69.9 ± 3.4% and 81 ± 3.1%, respectively. This molecule returned an MTD at 14 day in data set [1] greater than 160 mg/kg.

Take `CCN(CC)C(=O)Cn1c(=O)c(-c2ccc(OC)cc2)cc2c(OC)cc(OC)cc21` [CRL8315, N,N-Diethyl-2-[5,7-dimethoxy-3-(4-methoxy-phenyl)-2-oxo-1,2-dihydro-1-quinolinyl]acetamide]: the results for the viability at 10 µM in the data set on LoVo, in the data set on U-87MG and in the data set with T-47D were 78.9 ± 2.1%, 87.6 ± 4.5% and 101 ± 2.5%, respectively. Besides, in data set [1], the MTD at 14 day was greater than 160 mg/kg.

Regarding `COc1ccc(-c2cc3c(OC)cc(OC)cc3n(CCN(C)C)c2=O)cc1` [CRL8316, 1-[2-(Dimethylamino)ethyl]-5,7-dimethoxy-3-(4-methoxyphenyl)-1,2-dihydro-2-quinolinone], the viability at 10 µM in the data set on LoVo amounted to 73.9 ± 2.1%; in the data set on U-87MG, 74.3 ± 1.4%; in the data set on T-47D, 68.8 ± 2.4%. Moreover, the MTD at 14 day in data set [1] is greater than 160 mg/kg.
